Key:
NB4-R2 cells = test: Cytokine expression in NB4-R2 cells by RNAse protection assay; format: cell-based, human
Description: (§1) Modulation of cytokine expression in NB4 cells was assessed by RNAse protection assays. […] For comparison the effect of vitamin D3 (“D3”) was studied also. […] The intact probes run on the same gel are shown on the left (L32 and GAPDH are the invariant internal controls used for calibration) and the positions of the protected fragments are indicated. […] Only the positions of the protected fragments are shown.
(§2) RPA analysis. Total RNA was extracted with the Trizol reagent (Gibco BRL). The ribonuclease protection assay was performed according to the supplier's instructions (Pharmingen, San Diego, Calif.). […] RNA (4 μg) and 6×10^5 cpm of labeled probes were used for hybridization. After RNAse treatments, the protected probes were resolved on a 5% urea-polyacrylamide-bis-acrylamide gel.

NB4 cells [1] = test: NB4 cell maturation (morphology, NBT reduction, CD11c integrin expression); format: cell-based, human; conditions: for Induction of NB4 cell maturation/differentiation, agent alone: ATRA 1 μM, other agonists 0.2 μM, 8CPT-cAMP 100 μM, 72 h (NBT, morphology), 48 h (CD11c); for NB4 cell maturation in presence of 8CPT-cAMP: co-treatment with PKA agonist 8CPT-cAMP 100 μM
Description: Morphological features of NB4 cells in response to treatments (after 72 h). […] Nitroblue tetrazolium enzymatic reduction in retinoid-treated NB4 cells (after 72 h; percent of positive cells).
Cells and cultures. […] Essentially, cultures were established with log phase growing cells at concentration (10^5 ocell per ml) allowing exponential growth of untreated control cultures over 3 days without medium replenishment. […] Cultures were light-protected.
Morphological and functional cell maturation analysis. Cell morphology was analyzed after May-Grünwald staining. […] Morphology analysis and NBT reaction were performed after 72 h of treatment. At least 300 cells were analyzed for each treated culture.
Flow cytometry analysis of CD11c cell surface integrin. […] Briefly, after incubation (48 h), cells were washed in PBS and labeled with an anti-human CD11c FITC mouse monoclonal antibody (Becton-Dickinson). Cells were then washed twice in PBS and fixed in 1% paraformaldehyde/PBS solution. Cells were analyzed using a COULTER flow-cytometer.

NB4 cells [2] = test: Cytokine expression in NB4 cells by RNAse protection assay; format: cell-based, human; conditions: for G-CSF expression: agent alone, 0, 24, 48 h
Description: as §1, §2

T47D = test: Lipid accumulation (Nile Red staining) in T47D breast cancer cells; format: cell-based, human; conditions: 7 days; for Increase of differentiation by addition of CPT-cAMP over RXR ligand alone: 1 μM RXR ligand plus 100 μM 8CPT-cAMP; for EC50: RXR compound alone, Nile Red
Description: Staining Solution: Stock Solution (1 mg Nile red and 1 ml acetone were mixed thoroughly and stored, chilled and protected from light).
Staining. For Fluorescence Microscope, a drop of dye-glycerol solution was added to a slide and covered with a glass coverslip. After 5 minutes, the slide was viewed by fluorescence microscope, Excitation 450-500 nm, Emission>528 nm. For Flow Cytofluorometry, the medium was aspirated off from cells and washed with PBS two times (serum in the medium drained the dye out of the cells). Then the cells were trypsinized and washed with PBS to get rid of trypsin. The cells were spun down and resuspended in 1 ml PBS (1-2×10^6/ml). The stock dye was added directly to the cells suspension in PBS with 1:100 dilution, and incubated at room temperature for a minimal of 5 minutes, and the samples were analyzed immediately. For Fluorescence Spectra, the medium was removed from 96-well plates and the cells were washed once with PBS. […] Diluted dye in PBS (1:100 from stock) was added to the cells, incubated for 5 minutes, and the plate was read at Excitation 488nm with a 2-nm slit width, emission at 540 nm with a 20-nm slit width.
Cells. Breast cancer cell line T47D was obtained from American Type Culture Collection, Manassas, Va.

RARα-RXRα heterodimer = molecular target: T1, RARα-RXRα heterodimer (Homo sapiens, UniProt P10276+P19793); test: Transient transfection, RARα-RXRα heterodimer activity on DR5-tk-CAT reporter
T1 sequence (P10276 1-462): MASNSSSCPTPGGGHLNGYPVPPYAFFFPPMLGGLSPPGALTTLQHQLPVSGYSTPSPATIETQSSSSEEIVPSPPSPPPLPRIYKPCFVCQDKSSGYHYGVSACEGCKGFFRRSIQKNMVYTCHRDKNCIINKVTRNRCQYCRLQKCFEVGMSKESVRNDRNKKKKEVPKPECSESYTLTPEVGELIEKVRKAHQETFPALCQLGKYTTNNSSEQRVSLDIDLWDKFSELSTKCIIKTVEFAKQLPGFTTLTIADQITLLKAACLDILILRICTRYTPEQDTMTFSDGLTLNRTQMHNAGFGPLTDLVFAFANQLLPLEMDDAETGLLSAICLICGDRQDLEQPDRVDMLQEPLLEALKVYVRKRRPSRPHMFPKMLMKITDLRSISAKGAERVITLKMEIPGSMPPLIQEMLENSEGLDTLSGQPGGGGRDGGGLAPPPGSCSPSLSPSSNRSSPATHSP
T1 sequence (P19793 1-462): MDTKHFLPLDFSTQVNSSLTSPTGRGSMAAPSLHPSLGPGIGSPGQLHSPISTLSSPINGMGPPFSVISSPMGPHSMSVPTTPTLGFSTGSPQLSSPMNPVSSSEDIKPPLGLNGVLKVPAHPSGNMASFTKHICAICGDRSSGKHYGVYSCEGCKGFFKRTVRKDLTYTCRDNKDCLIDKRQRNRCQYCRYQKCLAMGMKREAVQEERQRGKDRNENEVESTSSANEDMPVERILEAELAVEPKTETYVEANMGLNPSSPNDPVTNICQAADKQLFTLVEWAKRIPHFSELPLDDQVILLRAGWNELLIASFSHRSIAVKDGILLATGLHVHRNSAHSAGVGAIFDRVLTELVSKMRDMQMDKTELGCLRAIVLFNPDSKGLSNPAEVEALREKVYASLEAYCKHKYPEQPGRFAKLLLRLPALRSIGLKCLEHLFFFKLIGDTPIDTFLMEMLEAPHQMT

CC1=C(/C=C/C(C)=C/C=C/C(C)=C/C(=O)O)C(C)(C)CCC1 [ATRA, all-trans retinoic acid]
IP 10, MCP1 or M-CSF expression in resistant cells (NB4-R2 cells): unable to induce
Induction of NB4 cell maturation/differentiation, agent alone (NB4 cells [1]): induce maturation
IL8 and MCPI expression (NB4 cells [2]; agent alone): induced
M-CSF and IP10 expression (NB4 cells [2]; agent alone): induced
G-CSF expression (NB4 cells [2]): incapable of stimulating G-CSF expression

Nc1ncnc2c1nc(Sc1ccc(Cl)cc1)n2[C@@H]1O[C@@H]2COP(=O)([O-])O[C@H]2[C@H]1O.[Na+] [Compound 8CPT-cAMP, 8-(4-Chlorophenylthio)-adenosine-3′,5′-cyclic monophosphate, sodium salt]
Lipid accumulation/differentiation, CPT-cAMP alone (T47D; 100 μM): No effect
Induction of NB4 cell maturation/differentiation, agent alone (NB4 cells [1]): did not exhibit any differentiating activity

CC1(C)C(=O)C(C)(C)c2cc(C(=O)Nc3ccc(C(=O)O)cc3)ccc21 [Compound I, 4-[[(2,3-Dihydro-1,1,3,3-tetramethyl-2-oxo-1H-inden-5-yl)carbonyl]amino]benzoic acid]
Induction of NB4 cell maturation/differentiation, agent alone (NB4 cells [1]): induce maturation
Growth of NB4 cells (NB4 cells [1]; agent alone): growth inhibited

CC1(C)CC=C(c2cnc3ccccc3c2)c2cc(C(=O)Nc3ccc(C(=O)O)cc3)ccc21 [Compound II]
Effect on Compound I-induced differentiation (NB4 cells [1]; NB4 cells, antagonist 2 μM): abrogated
Effect on maturation induced by 9-cis RA (NB4 cells [1]; NB4 cells, antagonist 2 μM): decreased dramatically
Inhibition of NB4 maturation induced by SR11237 plus 8CPT-cAMP (NB4 cells [1]; antagonist 2 μM): not inhibited

C=C(c1ccc(C(=O)O)cc1)c1cc2c(cc1C)C(C)(C)CC=C2C(C)C [Compound V, 4-[1-[5,6-Dihydro-3,5,5-trimethyl-8-(1-methylethyl)-2-naphthalenyl]ethenyl]benzoic acid]
Activity with RAR-RXR heterodimers on a DR5-based reporter (RARα-RXRα heterodimer; agent alone): nearly inactive
Effect on ATRA-induced transactivation of DR5-based reporter (RARα-RXRα heterodimer; with ATRA): synergized with
Induction of NB4 cell maturation/differentiation, agent alone (NB4 cells [1]): did not exert any differentiative effect
NB4 cell maturation in presence of 8CPT-cAMP (NB4 cells [1]): induced maturation with a potency similar to 9-cis RA

CC1(C)CC=C(c2ccc(-c3ccccc3)cc2)c2cc(/C=C/c3ccc(C(=O)O)cc3)ccc21 [Compound VI]
Effect on Compound I-induced differentiation (NB4 cells [1]; NB4 cells, antagonist 2 μM): abrogated
Inhibition of NB4 maturation induced by SR11237 plus 8CPT-cAMP (NB4 cells [1]; antagonist 2 μM): not inhibited

CN1c2ccc([N+](=O)[O-])cc2N=C(c2ccc(C(=O)O)cc2)c2cc3c(cc21)C(C)(C)CCC3(C)C [HX531]
NB4 cell maturation in presence of 8CPT-cAMP (NB4 cells [1]): No crosstalk

CC1(C)CCC(C)(C)c2cc(C3(c4ccc(C(=O)O)cc4)OCCO3)ccc21 [SR11237]
Transactivation of DR5-based reporter by coexpressed RAR and RXR in presence of the PKA agonist (RARα-RXRα heterodimer; with 8CPT-cAMP): did not observe any SR11237-induced transactivation
Increase of differentiation by addition of CPT-cAMP over RXR ligand alone (T47D): 20%
EC50 (T47D): 110 nM
Induction of NB4 cell maturation/differentiation, agent alone (NB4 cells [1]): completely inactive
NB4 cell maturation in presence of 8CPT-cAMP (NB4 cells [1]): induced full maturation
Factor of synergy, G-CSF expression (NB4 cells [2]; SR11237 with 8CPT-cAMP): > 50 fold
G-CSF expression (NB4 cells [2]): does not affect G-CSF expression
SCF, IL8 and MCPI expression (NB4 cells [2]; agent on its own): induced

C=C(c1ccc(C(=O)O)cc1)c1cc2c(cc1C)C(C)(C)CCC2(C)C [bexarotene]
Increase of differentiation by addition of CPT-cAMP over RXR ligand alone (T47D): 20%
EC50 (T47D; Homo sapiens, T47D, 168 h): 62 nM

C=C1CC[C@H](O)C/C1=C/C=C1\CCC[C@]2(C)[C@@H]([C@H](C)CCCC(C)C)CC[C@@H]12 [vitamin D3]
Induction of NB4 cell maturation/differentiation, agent alone (NB4 cells [1]): inactive on its own
NB4 cell maturation in presence of 8CPT-cAMP (NB4 cells [1]): moderate granulocytic maturation
Granulocytic maturation relative to the effect of SR11237 in presence of the PKA agonist (NB4 cells [1]; uM concentration, with 8CPT-cAMP): less than 20%
